Results: ChEMBL document CHEMBL1201862, “PubChem BioAssay data set” (2004)
Calls of active or inactive are those of the source.

Tests used:
[1] = inhibitors of HIV Env-driven cell fusion, dose response, cherry-pick (AID 652057); format: functional, cell-based
[2] = ZM109 Env clade C HIV-1 fusion inhibitors, dose response, HeLa effector, CEM target cells, luciferase, cherry-pick (AID 652058); format: functional, cell-based
[3] = inhibitors of clade B AD8 Env fusion, dose response, cell-based, cherry-pick (AID 652062); format: functional;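 note: luciferase signal from cell-cell fusion driven by HIV-1 clade B AD8 Env; potency is for inhibitors of fusion seen as a drop in luminescence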
Paired box protein Pax-8 = Paired box protein Pax-8 (Homo sapiens, UniProt Q06710); assay: inhibitors of PAX8-driven TPO luciferase reporter, dose response, RMG-I cells, cherry-pick (AID 687027); format: functional, cell-based;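 note: luciferase reporter driven by Pax8 target thyroperoxidase promoter measured by SteadyGlo luminescence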
[4] = biological target: T1, Microphthalmia-associated transcription factor (Homo sapiens, UniProt O75030); assay: TRPM1 promoter luciferase signal decrease, dose response, MITF inhibitor project, cell-based, SK-MEL-5, cherry-picked, set 3 (AID 493073); format: functional
T1 sequence (O75030 whole entry): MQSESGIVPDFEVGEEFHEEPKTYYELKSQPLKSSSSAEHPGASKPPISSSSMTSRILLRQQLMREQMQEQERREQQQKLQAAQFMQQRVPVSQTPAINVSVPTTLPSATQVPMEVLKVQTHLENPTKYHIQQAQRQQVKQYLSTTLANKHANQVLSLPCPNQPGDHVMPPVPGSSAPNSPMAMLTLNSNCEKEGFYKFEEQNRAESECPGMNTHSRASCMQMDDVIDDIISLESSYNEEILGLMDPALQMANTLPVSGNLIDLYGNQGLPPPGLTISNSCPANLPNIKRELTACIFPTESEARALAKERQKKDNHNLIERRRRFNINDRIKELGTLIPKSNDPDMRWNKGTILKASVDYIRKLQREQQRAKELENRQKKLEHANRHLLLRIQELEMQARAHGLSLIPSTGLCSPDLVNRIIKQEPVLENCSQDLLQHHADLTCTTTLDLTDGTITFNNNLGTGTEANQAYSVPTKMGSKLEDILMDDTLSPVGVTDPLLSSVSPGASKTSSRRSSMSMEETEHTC

[5] = biological target: Heat shock protein HSP 90-alpha (Homo sapiens, UniProt P07900); format: functional, organism-based
[6] = biological target: T2, Sentrin-specific protease 8 (Homo sapiens, UniProt Q96LD8); format: functional
T2 sequence (Q96LD8 whole entry): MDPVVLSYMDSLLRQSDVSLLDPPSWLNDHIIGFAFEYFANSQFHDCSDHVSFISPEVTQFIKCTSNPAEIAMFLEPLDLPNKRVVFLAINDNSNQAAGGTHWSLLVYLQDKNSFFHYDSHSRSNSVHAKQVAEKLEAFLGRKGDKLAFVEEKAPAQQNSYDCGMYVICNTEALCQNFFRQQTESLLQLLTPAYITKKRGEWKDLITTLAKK

[7] = biological target: T2, Sentrin-specific protease 8; format: functional; remark: listed apart in the source
[8] = biological target: Glyceraldehyde-3-phosphate dehydrogenase (Homo sapiens, UniProt P04406)
Nonstructural protein 1 = Nonstructural protein 1 (Influenza A virus, UniProt Q194T2); format: functional, Influenza A virus (A/California/07/2009(H1N1))
Vero = assay: cells; format: functional; conditions: Chlorocebus sabaeus
[9] = Shn3 3'UTR reporter inhibitors, dose response, cell-based, Clone20 osteoblasts, firefly luciferase, cherry-picked (AID 624132); format: functional;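 note: firefly luciferase luminescence from reporter carrying the Shn3 3'UTR in osteoblasts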
[10] = HepG2 cell cytotoxicity, dose response, cytotoxicity control for Shn3 inhibitor project, CellTiter-Glo, cherry-picked (AID 624134); format: functional, cell-based
[11] = control 3'UTR Renilla luciferase suppression, dose response, counter-screen for Shn3 inhibitor project, cell-based, Clone20-Shn3RL, cherry-picked (AID 624133); format: functional
cells [12] = format: functional, cell-based
cells [13] = format: functional, cell-based; remark: listed apart in the source
INS1 = assay: beta cell apoptosis inhibitors, cytokine rescue, dose response, luminescence, retest (AID 449756); format: functional, cell-based; conditions: Rattus norvegicus;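 note: cell death triggered by IL-1 beta plus TNF-alpha plus IFN-gamma mixture; protective hits raise ATP signal compared with cytokine alone wells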
[14] = biological target: T3, Heat shock factor protein 1 (Mus musculus, UniProt P38532); assay: inhibition of MG132-induced HSE-luciferase signal, confirmation, cell-based, NIH3T3, luminescence, dose retest (AID 2382); format: functional;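 note: NIH3T3 fibroblasts with HSF1-driven luciferase reporter stressed by proteasome inhibitor MG132; luminescence from HSF1-driven luciferase expression after 8 hours of MG132 stress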
T3 sequence (P38532 whole entry): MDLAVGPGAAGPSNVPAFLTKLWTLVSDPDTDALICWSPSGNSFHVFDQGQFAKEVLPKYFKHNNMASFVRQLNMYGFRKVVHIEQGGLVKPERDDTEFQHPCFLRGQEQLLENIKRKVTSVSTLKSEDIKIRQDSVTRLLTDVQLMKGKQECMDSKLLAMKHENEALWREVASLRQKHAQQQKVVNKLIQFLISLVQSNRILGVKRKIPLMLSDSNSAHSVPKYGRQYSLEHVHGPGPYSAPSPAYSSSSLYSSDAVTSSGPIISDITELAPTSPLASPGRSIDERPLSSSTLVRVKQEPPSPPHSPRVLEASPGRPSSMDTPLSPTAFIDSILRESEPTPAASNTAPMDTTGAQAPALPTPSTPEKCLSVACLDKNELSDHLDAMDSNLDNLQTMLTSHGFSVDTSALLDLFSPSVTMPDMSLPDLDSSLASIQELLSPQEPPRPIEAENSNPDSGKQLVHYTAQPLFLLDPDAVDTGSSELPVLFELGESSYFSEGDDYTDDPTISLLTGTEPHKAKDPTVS

[15] = biological target: T4, Long-chain-fatty-acid--AMP ligase FadD28 (Mycobacterium tuberculosis, UniProt P9WQ59); assay: Fluorescence polarization aasay to screen for inhibitors that compete for the binding of FadD28 to a bisubstrate Measured in Biochemical System Using Plate Reader - 2147-01_Inhibitor_Dose_CherryPick_Activity.; format: functional, Mycobacterium tuberculosis H37Rv
T4 sequence (P9WQ59 whole entry): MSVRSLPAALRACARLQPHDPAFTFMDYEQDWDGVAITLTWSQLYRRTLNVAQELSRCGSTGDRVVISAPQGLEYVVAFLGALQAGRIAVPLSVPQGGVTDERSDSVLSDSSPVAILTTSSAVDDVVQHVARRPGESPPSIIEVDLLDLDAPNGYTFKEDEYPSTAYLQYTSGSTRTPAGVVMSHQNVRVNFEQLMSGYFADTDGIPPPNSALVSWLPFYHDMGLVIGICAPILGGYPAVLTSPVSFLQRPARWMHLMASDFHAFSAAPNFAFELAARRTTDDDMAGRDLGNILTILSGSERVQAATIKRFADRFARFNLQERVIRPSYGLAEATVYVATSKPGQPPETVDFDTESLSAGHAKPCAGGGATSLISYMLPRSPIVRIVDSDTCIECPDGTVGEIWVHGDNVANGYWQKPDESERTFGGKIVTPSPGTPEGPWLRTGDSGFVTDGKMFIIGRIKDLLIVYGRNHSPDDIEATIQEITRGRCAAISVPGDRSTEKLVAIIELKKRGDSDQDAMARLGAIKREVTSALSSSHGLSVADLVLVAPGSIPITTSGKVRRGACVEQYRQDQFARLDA

[16] = biological target: Eukaryotic translation initiation factor 4E (Mus musculus, UniProt P63073); assay: eIF4E–eIF4G protein interaction inhibitors, dose response, biochemical, TR-FRET (AID 855); format: functional;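 note: potency for disrupting eIF4E binding to eIF4GI seen as loss of FRET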
[17] = THP-1 cell cytotoxicity, dose response, cytotoxicity control for non-replicating M. tuberculosis project (AID 489025); format: functional
[18] = Vero E6 cell cytotoxicity, dose response, cytotoxicity control for non-replicating M. tuberculosis project, secondary assay (AID 492998); format: functional, VeroE6; conditions: Vero C1008
cells [19] = format: functional
Cytochrome P450 1A2 = biological target: T5, Cytochrome P450 1A2 (Homo sapiens, UniProt P05177);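 note: PubChem cytochrome P450 panel assay, CYP1A2 panel member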
T5 sequence (P05177 whole entry): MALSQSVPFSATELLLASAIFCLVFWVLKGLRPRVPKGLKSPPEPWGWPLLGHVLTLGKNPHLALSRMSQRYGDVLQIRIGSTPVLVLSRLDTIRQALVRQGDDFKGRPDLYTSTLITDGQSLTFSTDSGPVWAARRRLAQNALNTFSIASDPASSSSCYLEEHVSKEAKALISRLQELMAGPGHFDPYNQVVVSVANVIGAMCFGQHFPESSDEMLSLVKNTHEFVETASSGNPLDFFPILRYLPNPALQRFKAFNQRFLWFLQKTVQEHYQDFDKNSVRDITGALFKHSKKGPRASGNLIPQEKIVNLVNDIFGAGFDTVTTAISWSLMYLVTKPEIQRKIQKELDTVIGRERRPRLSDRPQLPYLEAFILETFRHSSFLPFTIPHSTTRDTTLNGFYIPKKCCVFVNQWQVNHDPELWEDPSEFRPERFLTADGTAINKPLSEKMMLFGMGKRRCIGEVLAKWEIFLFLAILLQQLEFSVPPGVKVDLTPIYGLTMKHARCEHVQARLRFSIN

Cytochrome P450 3A4 = Cytochrome P450 3A4 (Homo sapiens, UniProt P08684); conditions: Potency;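 note: confirmatory qHTS run detecting inhibitors and substrates of CYP3A4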
HEK293 [20] = assay: NOD1 signaling inhibitors, primary screen, cell-based, luminescence, uHTS (AID 1578); format: functional; conditions: Homo sapiens
HEK293 [21] = assay: cells; format: functional, cell-based; conditions: Homo sapiens
HEK293 [22] = assay: cells; format: functional, cell-based; conditions: Homo sapiens; remark: listed apart in the source
HEK293 [23] = assay: NOD2 signaling inhibitors in MDP-stimulated cells, cell-based, uHTS, luminescence (AID 2001); format: functional; conditions: Homo sapiens
[24] = growth suppression of PTEN-null colon cells, dose response, cell-based, HCT116 PTEN knockout (AID 1047); format: functional;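 note: HCT116 colon tumor cells with PTEN knocked out; cells exposed to compound for 60 hours before readout; potency for loss of cell viability measured by luminescence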
[25] = growth suppression of beta-catenin-knockout colon cells, dose response, cell-based, HCT116, human colon tumor (AID 1045); format: functional;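 note: HCT116 colon tumor cells with beta catenin knocked out; cells exposed to compound for 60 hours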

## C[C@H]1CN([C@@H](C)CO)C(=O)Cc2cc(NC(=O)Cc3cn(C)c4ccccc34)ccc2O[C@H]1CN(C)S(=O)(=O)c1ccccc1
[1]
  AC50: 12.7 µM (active)
[2]
  AC50: 9.19 µM (active)
[3]
  AC50: 23.5 µM (active)

## C[C@@H]1CN([C@@H](C)CO)C(=O)Cc2cc(N(C)C)ccc2O[C@H]1CN(C)Cc1ccc(Oc2ccccc2)cc1
Paired box protein Pax-8
  AC50: 11 µM (active)

## CC(C)N1C/C(=C/c2cccnc2)C(=O)/C(=C/c2cccnc2)C1
[4]
  AC50: 14.2 µM (active)

## O=[N+]([O-])c1ccc(/C=N/c2ccc(Cl)c([N+](=O)[O-])c2)s1
[5]
  AC50: 2.99 µM (active)
[6]
  IC50: 3.07 µM (active)
[7]
  IC50: 2.35 µM (active)

## O=C(O)CS(=O)(=O)c1ccc(-c2ccc(S(=O)(=O)CC(=O)O)cc2)cc1
[8]
  IC50: > 100 µM (not active)

## O=C(Nc1nc(-c2ccccn2)cs1)C1COc2ccccc2O1 (stereo not drawn)
Nonstructural protein 1
  IC50: 10.7 µM (active)
[5]
  AC50: 5.85 µM (active)
Vero
  CC50: 10 µM (active)
[9]
  AC50: 5.81 µM (active)
[10]
  AC50: 47.6 µM (active)
[11]
  AC50: 4.69 µM (active)

## COc1ccc(C(NC(C)=O)c2ccc3cccnc3c2O)c(OC)c1 (stereo not drawn)
Cells [12]
  EC50: 8.62 µM (active)
Cells [13]
  EC50: > 350 µM (not active)
[4]
  AC50: 5.15 µM (active)
INS1
  AC50: 1.09 µM (active)
[9]
  AC50: 1.74 µM (active)
[10]
  AC50: 2.68 µM (active)
[11]
  AC50: 2.16 µM (active)

## COc1cccc(NC(=O)Cn2c(=O)oc3cc(S(=O)(=O)N4CCCC4)ccc32)c1
[14]
  EC50: > 195 µM (not active)
[15]
  AC50: 44.5 µM (active)

## Cc1ccc(S(=O)(=O)CCC(=O)NCc2ccccc2Cl)cc1
[16]
  IC50: > 64 µM (inactive)

## N#Cc1c(NCCN)nc(-c2ccccc2)c2c1CCCC2
Vero
  CC50: 16.4 µM (active)

## Cc1ccc(-c2nn(-c3ccccc3)cc2/C=N/NC(=O)c2ccncc2)o1
[17]
  CC50: 32.8 µM (active)
[18]
  CC50: > 20 µM (active)
Cells [19]
  IC50: 0.22 µM (active)

## O=C1Nc2ccc(Br)cc2/C1=C/C1CC=CCC1 (stereo not drawn)
[5]
  AC50: 8.03 µM (active)

## CCNCC(O)COCC(O)CNCC (stereo not drawn)
[16]
  IC50: > 64 µM (inactive)

## O=C(O)c1ccccc1C(=O)Nc1nccs1
[16]
  IC50: > 64 µM (inactive)
Cytochrome P450 1A2
  AC50: 15.8 µM (inconclusive)

## CCCn1c(-c2ccc(F)cc2)nc2c(NC3CC4CCC(C3)N4C)nc(C)nc21 (stereo not drawn)
Cytochrome P450 3A4
  AC50: 15.8 µM (inconclusive)

## COc1ccc(C(=O)Cn2nnc(-c3ccccc3F)n2)cc1
[15]
  AC50: > 100 µM (inactive)

## O=S(=O)(Nc1nc2ccccc2nc1N1CCN(c2ccccn2)CC1)c1ccc(Cl)cc1
[5]
  AC50: 6.23 µM (active)

## C[C@@H]1CN([C@@H](C)CO)C(=O)c2cc(NC(=O)c3ccccc3)ccc2O[C@@H](C)CCCCO[C@H]1CN(C)Cc1ccc(C(F)(F)F)cc1
Paired box protein Pax-8
  AC50: 10.1 µM (active)

## O=C1C=C(O)C(=O)c2ccccc21 [LAWSONE]
Cytochrome P450 3A4
  AC50: 25.1 µM (inconclusive)

## Cc1nc(N2CCOCC2)c2nc(-c3ccccc3)n(CCN3CCOCC3)c2n1
Cytochrome P450 3A4
  AC50: 10 µM (inconclusive)

## O=C(/C=C/c1ccco1)c1ccccc1O
[16]
  IC50: 50 µM (inactive)

## COc1cc(C(=O)OC2CC[C@]3(C)C4CCC5[C@]6(O)CC(O)[C@]7(O)C(CN8CC(C)CCC8[C@]7(C)O)[C@]6(O)C[C@@]53O[C@]24O)cc(OC)c1OC (stereo partly drawn)
Cytochrome P450 3A4
  AC50: 20 µM (inconclusive)

## CCOc1cc(C=C(C(=O)OC)C(=O)OC)ccc1OCc1ccc([N+](=O)[O-])cc1
HEK293 [20]
  EC50: 11.9 µM (active)
HEK293 [21]
  IC50: 3.72 µM (active)
HEK293 [22]
  IC50: > 20 µM (inactive)
HEK293 [23]
  IC50: 5.8 µM (active)
[24]
  EC50: 18 µM (active)
[25]
  EC50: 16.9 µM (active)

## CCCCNc1nc(C)nc2c1nc(-c1ccccc1)n2CCN(C)C
Cytochrome P450 3A4
  AC50: 15.8 µM (inconclusive)
